Columns and labels:
HSF1 [1] = conditions: read-out: IC50, heat shock-induced HSF1 reporter activity; cited from earlier work
[2] = statement in discussion, no experiment and reference not given; cited from earlier work
CCD 841 CoN cells = assay: MTS cell viability assay, normal colon epithelial cells; assay type: cell-based, human; conditions: 72 h
RKO cells [3] = assay: MTS cell viability assay, RKO; assay type: cell-based; conditions: Homo sapiens, 72 h, read-out: IC50, antiproliferative effect
Procedure: (§1) The Cell Titer 96 Aqueous Non-Radioactive Cell Proliferation Assay Kit (Promega, U.S.A.) was utilized to measure cell viability. RKO, DLD-1 cells (5 × 10^3 cells/well) and SW620, SW480 (6 × 10^3 cells/well) were seeded in 96-well plates overnight. This was followed by the removal of the culture medium and the exposure of all cells to different concentrations of chemical treatment for 72 h. The absorbance value of each well was determined by a microplate reader at 490 nm. Each experiment was repeated for three times.

[4] = system: p-Rb (S807/811), Cyclin D1, Cdk4, Cdk6; assay: Western blot of cell cycle-related proteins; assay type: cell-based, human; conditions: RKO, 50-150 μM, 24 h
Procedure: (§2) After 24 h of treatment as indicated, the cells were washed once with PBS. The total proteins were extracted with RIPA buffer supplemented with protease inhibitors (Roche, U.S.A.) and quantified with BSA standard methodology. Equal amounts of proteins were separated by SDS/PAGE and transferred to a PVDF membrane. After blocking with 5% non-fat dry milk in TBST for 1.5 h, the membrane was incubated with a specific primary antibody diluted 1:1000 overnight at 4°C, and the secondary antibody was then conjugated with HRP (1:5000, Santa Cruz, CA) at room temperature for 2 h. The immunoreactive bands were visualized with enhanced chemiluminescence liquid (Millipore, Billerica, MA, U.S.A.) in Amersham Imager 600 system (GE Healthcare Life Sciences, Shanghai, China).

RKO cells [5] = assay: Cell cycle analysis by flow cytometry (PI); assay type: cell-based, human
Procedure: Cells (3 × 10^5 cells/well) were seeded in six-well plates and allowed to adhere overnight. The next day, the cells were treated with different compounds as indicated for 24 h. The cells were then trypsinized, washed, and fixed in 75% ice-cold ethanol at 4°C overnight. After centrifugation, the pellets were washed with cold PBS, suspended in 500 μl PBS with […] PI and incubated in the dark at 4°C for 30 min. Then cell suspension was tested using an FACS Calibur instrument (Becton Dickinson FACSCalibor, BD Biosciences, Franklin Lakes, NJ, U.S.A.).

HSF1 [6] = assay: HSE luciferase reporter assay (heat shock-induced HSF1 reporter activity); assay type: cell-based; conditions: Homo sapiens, RKO cells, 30 min pretreatment, 43°C 1 h, 5 h recovery
Procedure: The double-strand DNA containing four copies of the palindromic HSE (5′-[…]-3′) was synthesized and inserted into the multiple cloning site (MCS) of pGL3-basic vector (Promega, U.S.A.), which was named as p(HSE)4-basic vector. Then, the Dual-Glo® Luciferase Assay System (Promega, U.S.A.) was used to measure the activity of the reporter. Briefly, RKO cells (3 × 10^5 cells/well) were seeded in six-well plates. After being cultured overnight, cells were co-transfected with 2 μg of p(HSE)4-basic vector and 0.2 μg of pRL-TK using X-treme GENE HP DNA Transfection Reagent (Roche, U.S.A.) according to the manufacturer’s protocol. The Renilla luciferase gene was transfected as an internal control vector. Twenty-four hours after transfection, cells were trypsinized and seeded in 12-well plates at a density of 8 × 10^4 cells per well. The next day, cells were incubated with Sch A at different concentrations for 30 min, exposed to heat shock at 43°C for 60 min, and then incubated further at 37°C for 5 h. Firefly and Renilla luciferase activities were measured using a dual-light reporter gene assay kit (Promega) with a Synergy 2 BioTek plate reader (BioTek, U.S.A.).

SW620 cells = assay: MTS cell viability assay, SW620; assay type: cell-based; conditions: Homo sapiens, SW-620, 72 h, read-out: IC50 (50% inhibition), antiproliferative effect
Procedure: as §1

[7] = system: Cleaved-PARP, Cleaved-caspase-3, Bcl-2; assay: Western blot of apoptosis-related proteins; assay type: cell-based, human; conditions: RKO, 50-150 μM, 24 h
Procedure: Flow cytometer analysis and Western blotting were used to detect cell apoptosis. For flow cytometer analysis of apoptosis, cells were treated […] for 24 h, washed twice with PBS, and re-suspended in 100 μl of 1 × binding buffer. Five microliters of FITC Annexin V and propidium iodide (PI) (556547, BD Biosciences, U.S.A.) were added to the cell suspension and then incubated at room temperature for 15 min. After dilution with 400 μl binding buffer, the samples were analyzed using an ACS Calibur flow cytometer (BD). For apoptosis using Western blotting, cleaved caspase 3, cleavage of PARP, Bcl-2, and BCl-xL were analyzed.
as §2

Hsp70 and Hsp27 = assay: Western blot of HSF1 downstream proteins; assay type: cell-based, human; conditions: RKO, 50-150 μM, heat shock or 24 h at normal temperature
Procedure: as §2

DLD-1 cells = assay: MTS cell viability assay, DLD-1; assay type: cell-based; conditions: Homo sapiens, 72 h, read-out: IC50, antiproliferative effect
Procedure: as §1

[8] = molecular target: T1, human recombinant HSF1 full-length protein (Homo sapiens, UniProt Q00613); assay: SPR direct binding to HSF1
T1 sequence (Q00613 1-529): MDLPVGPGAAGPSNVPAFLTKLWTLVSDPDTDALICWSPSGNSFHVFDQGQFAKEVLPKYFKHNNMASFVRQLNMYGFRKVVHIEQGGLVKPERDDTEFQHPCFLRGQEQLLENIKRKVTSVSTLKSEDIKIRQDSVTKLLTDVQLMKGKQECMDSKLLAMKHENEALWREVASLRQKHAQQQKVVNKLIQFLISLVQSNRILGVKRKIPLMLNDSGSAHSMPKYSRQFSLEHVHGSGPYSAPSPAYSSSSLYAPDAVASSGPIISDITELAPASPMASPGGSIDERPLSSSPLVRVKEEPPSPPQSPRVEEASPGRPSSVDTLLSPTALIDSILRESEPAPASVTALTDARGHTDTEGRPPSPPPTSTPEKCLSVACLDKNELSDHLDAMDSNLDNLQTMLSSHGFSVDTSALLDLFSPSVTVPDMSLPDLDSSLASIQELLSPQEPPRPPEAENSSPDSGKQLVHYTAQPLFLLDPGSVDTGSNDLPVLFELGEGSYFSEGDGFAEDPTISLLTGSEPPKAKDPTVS
Procedure: SPR experiments were performed on a ProteOn XPR36 Protein Interaction Array system (Bio-Rad Laboratories, Hercules, CA, U.S.A.). Briefly, HSF1 solution in PBST (5 mM, pH 7.4) at a concentration of 1 mg/ml was diluted to 30 μg/ml with sodium acetate buffer (pH 4.5). The chip was activated with EDC/NHS (10 μl/min for 600 s). Then, HSF1 was loaded (5 μl/min for 400 s) and immobilized covalently. Approximately 7000 RU of HSF1 was immobilized on the chip. Any excess of unbound HSF1 was removed by flowing PBS solution (5 mM, pH 7.4, with 5%, w/v, DMSO). […] Five concentrations were injected simultaneously at a flow rate of 30 μM/min for 120 s of association phase, followed with 120 s of dissociation phase at 25°C. The final graph was obtained by subtracting blank sensorgrams from the duplex or quadruplex sensorgrams. Data were analyzed using the ProteOn manager software.

RKO and SW620 cells = assay: Clonogenic (colony-forming) assay; assay type: cell-based, human; conditions: 75 and 150 μM for 24 h, colonies stained on 14th day, vs negative control
Procedure: RKO cells were seeded at a density of 800 cells per well in six-well cell culture plate overnight. Then Sch A was mixed into the culture medium and added at different concentrations. After 24 h, the culture medium was replaced with fresh culture medium, and was allowed to grow for an additional 14 ays. Following this, the medium was removed from the colonies, which were then washed twice with PBS, fixed with methanol for 15 min, stained with Crystal Violet for 15 min, and finally washed with running water for 5 min. Colonies containing more than 50 cells were counted, and then photographed for visualization.
Furthermore, colony-forming assays were performed to assess the long-term inhibitory effects of Sch A treatment. After 24 h of treatment with Sch A (75 and 150 μM), the cell culture was replaced with fresh medium every 3 days. On the 14th day, cell colonies were stained with 0.1% Crystal Violet and photographed.

SW480 cells = assay: MTS cell viability assay, SW480; assay type: cell-based; conditions: Homo sapiens, 72 h, read-out: IC50 (50% inhibition), antiproliferative effect
Procedure: as §1

[9] = system: HSP70, HSP27 and HSP90 mRNA; assay: qRT-PCR of HSF1 target genes after heat shock; assay type: cell-based, human; conditions: RKO, 50-150 μM, heat shock 43°C 1 h, recovery 37°C 0.5 h
Procedure: Total RNA was extracted with TRIzol reagent (Invitrogen) following the manufacturer’s protocol. RNA concentrations were quantified by NanoDrop 2000 (Nanodrop, U.S.A.). Two micrograms RNA was reverse transcribed with High-Capacity cDNA Reverse Transcription Kit (Applied Biosystems, U.S.A.). Quantitative real-time PCR was performed to determine the mRNA expression level using SYBR Green Master Mix Kit and Light Cycler 480 II system (Roche, Shanghai, China).
Relative quantities of HSP70, HSP90 and HSP27 mRNA were normalized against ACTB mRNA.

SMILES: CNc1ccc([N+](=O)[O-])c(Nc2ccc3[nH]ncc3c2)n1 [KRIBB11]
- IC50 (HSF1 [1]): 1.2 µM

SMILES: COc1cc2c(c(OC)c1OC)-c1c(cc(OC)c(OC)c1OC)C[C@H](C)[C@H](C)C2 [Sch A, Schizandrin A]
- water solubility [2]: low water solubility
- effect on cell viability (CCD 841 CoN cells; CCD 841 CoN cells, up to 150 μM): little effect on the cell viability
- IC50 (CCD 841 CoN cells; Homo sapiens, CCD 841 CoN normal colon epithelial cells, MTS, read-out: IC50, antiproliferative effect): > 150 µM
- IC50 (RKO cells [3]): 68.7 µM
- expression of cell cycle-related proteins (p-Rb, Cyclin D1, Cdk4, Cdk6) [4]: reducing the expression of cell cycle-related proteins
- Dip G2 (RKO cells [5]; 50 μM, 24 h (DMSO 15.92 %)): 14.49%
- Dip S (RKO cells [5]; 50 μM, 24 h (DMSO 38.03 %)): 30.80%
- Dip G1 (RKO cells [5]; 50 μM, 24 h (DMSO 46.05 %)): 54.71%
- Dip G1 (RKO cells [5]; 75 μM, 24 h): 62.16%
- Dip G2 (RKO cells [5]; 75 μM, 24 h): 10.56%
- Dip S (RKO cells [5]; 75 μM, 24 h): 27.28%
- Dip G1 (RKO cells [5]; 100 μM, 24 h): 72.26%
- Dip G2 (RKO cells [5]; 100 μM, 24 h): 7.82%
- Dip S (RKO cells [5]; 100 μM, 24 h): 19.93%
- Dip G1 (RKO cells [5]; 150 μM, 24 h): 82.94%
- Dip G2 (RKO cells [5]; 150 μM, 24 h): 8.53%
- Dip S (RKO cells [5]; 150 μM, 24 h): 8.53%
- inhibition at 100 µM (HSF1 [6]): ~50%
- IC50 (SW620 cells): 85.7 µM
- expression of anti-apoptotic protein Bcl-2 [7]: decreased
- expression of pro-apoptotic molecules (Cleaved-PARP and Cleaved-caspase-3) [7]: significantly elevated
- HSF1-regulated downstream signaling induced by heat shock and basal expression of Hsp 70 and Hsp 27 (Hsp70 and Hsp27): effectively down-regulated
- IC50 (DLD-1 cells): > 150 µM
- Kd [8]: 106 µM
- kon ([8]; pH 7.4, read-out: Ka (association constant, SPR)): 26900 M⁻¹ s⁻¹
- effect on clone formation (RKO and SW620 cells): stronger inhibitory effect on cancer cell growth in a dose-dependent manner
- IC50 (SW480 cells): 87.6 µM
- transcription of HSF1 target genes (HSP70, HSP27, HSP90 mRNA) [9]: effectively blocked the transcription of HSF1 target genes
